The values below come from patent US7998978B2 (Pfizer Inc., priority 2006, dated 2011).

Structures are written as SMILES.

This experiment deals with T1, JNK1α1 (Homo sapiens, UniProt P45983).
T1 construct: catalytic domain containing amino acids 1-364 and N-terminal hexahistidine tag; hexahistidine (His6) (N); made in house; host or cells: E. coli BL21 (DE3)
Briefly: Coupled spectrophotometric (PK/LDH) JNK1α1 assay: % inhibition and Ki determination. It is filed as biochemical. The conditions noted are these: for inhibition at 1 µM / inhibition at 10 µM: read-out: % Inhibition JNK-1; for Ki: JNK-1. Put shortly: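 Initial rates were taken from the absorbance decrease at 340 nm at 30° C. Ki was fitted with a tight-binding model over 11 concentrations (top 100 μM); single-point inhibition was tested at 1 or 10 μM.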

T1 sequence (P45983 1-364): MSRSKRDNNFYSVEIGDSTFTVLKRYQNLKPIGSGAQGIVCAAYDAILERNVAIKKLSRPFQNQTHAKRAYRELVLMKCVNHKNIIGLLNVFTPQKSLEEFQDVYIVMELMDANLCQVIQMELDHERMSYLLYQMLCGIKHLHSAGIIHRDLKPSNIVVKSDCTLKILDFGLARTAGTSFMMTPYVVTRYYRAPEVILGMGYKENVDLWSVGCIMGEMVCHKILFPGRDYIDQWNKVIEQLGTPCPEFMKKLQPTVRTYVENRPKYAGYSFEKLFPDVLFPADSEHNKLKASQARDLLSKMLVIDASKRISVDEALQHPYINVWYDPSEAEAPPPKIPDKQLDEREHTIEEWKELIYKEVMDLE

As for `Cc1noc(C)c1COc1ccc2cnc(N[C@H]3CC[C@H](O)CC3)nc2c1` [Example 295, trans-4-({7-[(3,5-dimethylisoxazol-4-yl)methoxy]quinazolin-2-yl}amino)cyclohexanol], the inhibition at 1 µM came out at 71%.

As for `C[C@@H]([C@H](Oc1ccc2cnc(N[C@H]3CC[C@H](O)CC3)nc2c1)c1ccccc1)N(C)C` [Example 296, trans-4-[(7-{[(1R,2S)-2-(dimethylamino)-1-phenylpropyl]oxy}quinazolin-2-yl)amino]cyclohexanol], the inhibition at 1 µM turned out to be 14%.

For `O[C@H]1CC[C@H](Nc2ncc3ccc(OCc4ccccc4CN4CCCC4)cc3n2)CC1` [Example 297, trans-4-[(7-{[2-(pyrrolidin-1-ylmethyl)benzyl]oxy}quinazolin-2-yl)amino]cyclohexanol], the inhibition at 1 µM was found to be 28%.

Take `O[C@H]1CC[C@H](Nc2ncc3ccc(OC(CN4CCOCC4)c4ccccc4)cc3n2)CC1` (stereo partly drawn) [Example 298, trans-4-{[7-(2-morpholin-4-yl-1-phenylethoxy)quinazolin-2-yl]amino}cyclohexanol]: the inhibition at 1 µM amounted to 18%.

As to `O=C(Nc1ccnn1Cc1ccccc1)c1cccc2cnc(N[C@H]3CC[C@H](O)CC3)nc12` [Example 311, N-(1-benzyl-1H-pyrazol-5-yl)-2-[(trans-4-hydroxycyclohexyl)amino]quinazoline-8-carboxamide], the inhibition at 10 µM amounted to 36%.

With `Cc1cc(NC(=O)c2cccc3cnc(N[C@H]4CC[C@H](O)CC4)nc23)n(C(C)C)n1` [Example 312, 2-[(trans-4-hydroxycyclohexyl)amino]-N-(1-isopropyl-3-methyl-1H-pyrazol-5-yl)quinazoline-8-carboxamide], the inhibition at 10 µM turned out to be 76%.

Turning to `Cc1cc(C)nc(NC(=O)c2cccc3cnc(N[C@H]4CC[C@H](O)CC4)nc23)n1` [Example 313, N-(4,6-dimethylpyrimidin-2-yl)-2-[(trans-4-hydroxycyclohexyl)amino]quinazoline-8-carboxamide], the inhibition at 10 µM came to 71%.

For `CCc1ccc(C)nc1NC(=O)c1cccc2cnc(N[C@H]3CC[C@H](O)CC3)nc12` [Example 314, N-(3-ethyl-6-methylpyridin-2-yl)-2-[(trans-4-hydroxycyclohexyl)amino]quinazoline-8-carboxamide], the inhibition at 1 µM turned out to be 11%.

With `O=C(Nc1nccc2cccnc12)c1cccc2cnc(N[C@H]3CC[C@H](O)CC3)nc12` [Example 315, 2-[(trans-4-hydroxycyclohexyl)amino]-N-1,7-naphthyridin-8-ylquinazoline-8-carboxamide], the inhibition at 10 µM turned out to be 52%.

For the compound `COc1ncccc1NC(=O)c1cccc2cnc(N[C@H]3CC[C@H](O)CC3)nc12` [Example 316, 2-[(trans-4-hydroxycyclohexyl)amino]-N-(2-methoxypyridin-3-yl)quinazoline-8-carboxamide], the inhibition at 1 µM amounted to 18%.

On to `Cn1nc(-c2ccncc2)cc1NC(=O)c1cccc2cnc(N[C@H]3CC[C@H](O)CC3)nc12` [Example 317, 2-[(trans-4-hydroxycyclohexyl)amino]-N-(1-methyl-3-pyridin-4-yl-1H-pyrazol-5-yl)quinazoline-8-carboxamide], for which the inhibition at 1 µM worked out at 31%.

`Cc1nn(C)c(C)c1NC(=O)c1cccc2cnc(N[C@H]3CC[C@H](O)CC3)nc12` [Example 318, 2-[(trans-4-hydroxycyclohexyl)amino]-N-(1,3,5-trimethyl-1H-pyrazol-4-yl)quinazoline-8-carboxamide]: the inhibition at 1 µM was 37%.

For the compound `CN(C)c1ncccc1NC(=O)c1cccc2cnc(N[C@H]3CC[C@H](O)CC3)nc12` [Example 319, N-[2-(dimethylamino)pyridin-3-yl]-2-[(trans-4-hydroxycyclohexyl)amino]quinazoline-8-carboxamide], the inhibition at 1 µM worked out at 27%.

Regarding `CCn1ncnc1NC(=O)c1cccc2cnc(N[C@H]3CC[C@H](O)CC3)nc12` [Example 320, N-(1-ethyl-1H-1,2,4-triazol-5-yl)-2-[(trans-4-hydroxycyclohexyl)amino]quinazoline-8-carboxamide], the inhibition at 1 µM is 19%.

Consider `CC(C)c1ncc(NC(=O)c2cccc3cnc(N[C@H]4CC[C@H](O)CC4)nc23)cn1` [Example 321, 2-[(trans-4-hydroxycyclohexyl)amino]-N-(2-isopropylpyrimidin-5-yl)quinazoline-8-carboxamide], for which the inhibition at 1 µM came out at 39%.

Turning to `Cc1cc(NC(=O)c2cccc3cnc(N[C@H]4CC[C@H](O)CC4)nc23)nc(C)n1` [Example 322, N-(2,6-dimethylpyrimidin-4-yl)-2-[(trans-4-hydroxycyclohexyl)amino]quinazoline-8-carboxamide], the inhibition at 1 µM was 18%.

As for `Cc1nnc(NC(=O)c2cccc3cnc(N[C@H]4CC[C@H](O)CC4)nc23)o1` [Example 323, 2-[(trans-4-hydroxycyclohexyl)amino]-N-(5-methyl-1,3,4-oxadiazol-2-yl)quinazoline-8-carboxamide], the inhibition at 1 µM came to 42%.

Take `O=C(Nc1cccnc1N1CCOCC1)c1cccc2cnc(N[C@H]3CC[C@H](O)CC3)nc12` [Example 324, 2-[(trans-4-hydroxycyclohexyl)amino]-N-(2-morpholin-4-ylpyridin-3-yl)quinazoline-8-carboxamide]: the inhibition at 10 µM was found to be 26%.

Consider `Cc1cc(NC(=O)c2cccc3cnc(N[C@H]4CC[C@H](O)CC4)nc23)n(-c2ccccn2)n1` [Example 325, 2-[(trans-4-hydroxycyclohexyl)amino]-N-(3-methyl-1-pyridin-2-yl-1H-pyrazol-5-yl)quinazoline-8-carboxamide], for which the inhibition at 1 µM is 9%.

In turn, `O=C(NC(CO)c1ccccc1)c1ccc2cnc(N[C@H]3CC[C@H](O)CC3)nc2c1` (stereo partly drawn) [Example 326, 2-{(trans-4-hydroxycyclohexyl)amino]-N-(2-hydroxy-1-phenylethyl)quinazoline-7-carboxamide] showed a Ki of 193 nM.

`O=C(NCC1(O)CCCCC1)c1ccc2cnc(N[C@H]3CC[C@H](O)CC3)nc2c1` [Example 327, 2-[(trans-4-hydroxycyclohexyl)amino]-N-[(1-hydroxycyclohexyl)methyl]quinazoline-7-carboxamide] yielded an inhibitory constant (Ki) of 254 nM.

Consider `O=C(N[C@H]1CC[C@H](O)CC1)c1ccc2cnc(N[C@H]3CC[C@H](O)CC3)nc2c1` [Example 328, N-(trans-4-hydroxycyclohexyl)2[(trans-4-hydroxycyclohexyl)amino]quinazoline-7-carboxamide], for which the Ki came out at 257 nM.

As to `O=C(Nc1ccccn1)c1ccc2cnc(N[C@H]3CC[C@H](O)CC3)nc2c1` [Example 330, 2-[(trans-4-hydroxycyclohexyl)amino]-N-pyridin-2-ylquinazoline-7-carboxamide], the Ki turned out to be 354 nM.

`CN(C)c1ncccc1NC(=O)c1ccc2cnc(N[C@H]3CC[C@H](O)CC3)nc2c1` [Example 331, N-[2-(dimethylamino)pyridin-3-yl]-2-[(trans-4-hydroxycyclohexyl)amino]quinazoline-7-carboxamide] gave an inhibition constant (Ki) of 410 nM.

In turn, `CCCC(CO)NC(=O)c1ccc2cnc(N[C@H]3CC[C@H](O)CC3)nc2c1` (stereo partly drawn) [Example 332, 2-[(trans-4-hydroxycyclohexyl)amino]-N-[1-(hydroxymethyl)butyl]quinazoline-7-carboxamide] gave an inhibitory constant (Ki) of 424 nM. This Ki and that of the compound before are within 1.5-fold of each other.

`CCn1ccnc1CNC(=O)c1ccc2cnc(N[C@H]3CC[C@H](O)CC3)nc2c1` [Example 333, N-[(1-ethyl-1H-imidazol-2-yl)methyl]-2-([trans-4-hydroxycyclohexyl)amino]quinazoline-7-carboxamide] displayed a Ki of 455 nM.

In the case of `CC[C@@H](CO)NC(=O)c1ccc2cnc(N[C@H]3CC[C@H](O)CC3)nc2c1` [Example 334, 2-[(trans-4-hydroxycyclohexyl)amino]-N-[(1S)-1-(hydroxymethyl)propyl]quinazoline-7-carboxamide], the Ki was found to be 480 nM.

As for `CC1(CNC(=O)c2ccc3cnc(N[C@H]4CC[C@H](O)CC4)nc3c2)COC1` [Example 335, 2-[(trans-4-hydroxycyclohexyl)amino]-N-[(3-methyloxetan-3-yl)methyl]quinazoline-7-carboxamide], the Ki came out at 483 nM. This Ki and that of the compound before are within 1.5-fold of each other.

`O=C(N[C@H]1CC[C@@H](CO)CC1)c1ccc2cnc(N[C@H]3CC[C@H](O)CC3)nc2c1` [Example 336, 2-[(trans-4-hydroxycyclohexyl)amino]-N-[cis-4-(hydroxymethyl)cyclohexyl]quinazoline-7-carboxamide] displayed a Ki of 516 nM.

For the compound `O=C(N[C@@H](CO)c1ccccc1)c1ccc2cnc(N[C@H]3CC[C@H](O)CC3)nc2c1` [Example 337, 2-[(trans-4-hydroxycyclohexyl)amino]-N-[(1R)-2-hydroxy-1-phenylethyl]quinazoline-7-carboxamide], the Ki is 568 nM. This Ki and that of the compound before are within 1.5-fold of each other.

`O=C(NCCCO)c1ccc2cnc(N[C@H]3CC[C@H](O)CC3)nc2c1` [Example 338, 2-[(trans-4-hydroxycyclohexyl)amino]-N-(3-hydroxypropyl)quinazoline-7-carboxamide] had a Ki of 637 nM.

`O=C(NCCCn1cccn1)c1ccc2cnc(N[C@H]3CC[C@H](O)CC3)nc2c1` [Example 339, 2-[(trans-4-hydroxycyclohexyl)amino]-N-[3-(1H-pyrazol-1-yl)propyl]quinazolin-7-carboxamide]: the inhibitory constant (Ki) was determined as 801 nM.

`O=C(NCC1CCCO1)c1ccc2cnc(N[C@H]3CC[C@H](O)CC3)nc2c1` (stereo partly drawn) [Example 340, 2-[(trans-4-hydroxycyclohexyl)amino]-N-(tetrahydrofuran-2-ylmethyl)quinazoline-7-carboxamide] yielded an inhibitory constant (Ki) of 836 nM.

Take `O=C(NCC1(O)CCC1)c1ccc2cnc(N[C@H]3CC[C@H](O)CC3)nc2c1` [Example 341, N-[(1-hydroxycyclobutyl)methyl]-2-[(trans-4-hydroxycyclohexyl)amino]quinazoline-7-carboxamide]: affinity was put at a Ki of 836 nM.

Take `O=C(NC1CCCCC1O)c1ccc2cnc(N[C@H]3CC[C@H](O)CC3)nc2c1` (stereo partly drawn) [Example 342, N-(2-hydroxycyclohexyl)-2-[(trans-4-hydroxycyclohexyl)amino]quinazoline-7-carboxamide]: the affinity corresponds to a Ki of 839 nM.
